Biological target: cathepsin B (Homo sapiens, UniProt P07858)
Experiment: Time-dependent fluorescence emission of ICG systems with or without cathepsin B
Type: biochemical
Conditions: after 24 h at 37° C. in PBS
Description: The equivalent ICG concentration in all systems was 6 μg/mL. Fluorescence emission spectra of these systems were acquired over the course of 48 h. The excitation wavelength of 740 nm was used to obtain the fluorescence spectra. For the afore-mentioned experiments, spectra and fluorescence intensities were obtained using a CLARIOstar® High Performance Monochromator Multimode microplate reader (BMG LABTECH, UK).

- fluorescence emission of free ICG: suppressed
Structure (SMILES): CC1(C)C(/C=C/C=C/C=C/C=C2\N(CCCCS(=O)(=O)O)c3ccc4ccccc4c3C2(C)C)=[N+](CCCCS(=O)(=O)[O-])c2ccc3ccccc3c21 [free ICG, Indocyanine green]
